Where “and” joins values, the source holds several entries; their conditions need not be identical. Identical values can stand only once.
What was measured:
[1] = system: PDE extracts prepared from rat PRP (cGMP hydrolysis); assay: Phosphodiesterase activity in platelet extracts, hydrolysis of cGMP (HPLC); type: biochemical; details: vehicle = 100%, single replicates
Procedure: The effects of naringenin on PDE activity were determined using high-performance liquid chromatography (HPLC) ([Hu et al., 2011]). Briefly, PRP was pelleted by centrifugation for 10 min at 900 × g and homogenized in PBS containing 0.1% Triton X-100 using an ultrasonic homogenizer. After centrifugation at 12,000 × g for 20 min at 4°C, the supernatant was subjected to PDE activity assay.
DMSO vehicle or different concentrations naringenin were added to assay buffer (137 mM NaCl, 2.7 mM KCl, 8.8 mM Na2HPO4, 1.5 mM KH2PO4, 1 mM CaCl2, 1 mM MgCl2, pH 7,4) containing cAMP or cGMP. The reaction was initiated by adding 30 μL PDE extracts prepared from rat PRP as described above. Some extracts were boiled for 3 min to inactivate PDE before addition. After incubation for 30 min at […], the reaction was terminated by boiling the mixture for 3 min. Subsequently, the mixture was cooled on ice followed by centrifugation at 12,000 × g for 20 min at 4°C. The supernatant was subjected cAMP or cGMP assay using HPLC. PDE activity was expressed as percentages of the hydrolysis of cAMP or cGMP.

[2] = system: washed platelets on collagen-coated coverslips; assay: Platelet adhesion on collagen-coated surface; type: cell-based, rat; details: for Area (%) of platelets adherent on collagen: single replicates
Procedure: Washed platelets were treated with naringenin or vehicle at 37°C for 10 min in the presence of 2 mM CaCl2 ([Suzuki-Inoue et al., 2001]). The platelets were added to collagen-coated coverslips and incubated at 37°C for 45 min. After unbound platelets were removed by washing, adherent platelets were fixed with 4% paraformaldehyde, permeabilized with 0.1% Triton X-100 and stained with TRITC-conjugated phalloidin (1 μg/ml). Adherent platelets were viewed using an inverted fluorescence microscope (Nikon TE-2000S) and processed using Image J software.

## O=C1C[C@@H](c2ccc(O)cc2)Oc2cc(O)cc(O)c21 [Naringenin]
[1]; 100 μM
  PDE activity (%): 55.89% and 98.26% and 70.79%
[1]; 200 μM
  PDE activity (%): 55.23% and 54.30% and 66.68%
[1]; 400 μM
  PDE activity (%): 64.97% and 53.69% and 55.23%
[1]; 800 μM
  PDE activity (%): 56.89% and 50.38% and 49.55%
[2]; 100 μM
  Area (%) of platelets adherent on collagen: 29.32% and 16.92% and 17.38%
[2]; 200 μM
  Area (%) of platelets adherent on collagen: 17.54% and 13.16% and 17.35%
[2]; 400 μM
  Area (%) of platelets adherent on collagen: 12.99% and 15.28% and 9.21%
[2]; 800 μM
  Area (%) of platelets adherent on collagen: 2.55% and 1.74% and 1.66%
[2]; 200, 400 and 800 μM
  platelet adhesion on collagen-coated surface: significantly reduced

Source: publication PMC8406801, “Naringenin Inhibits Platelet Activation and Arterial Thrombosis Through Inhibition of Phosphoinositide 3-Kinase and Cyclic Nucleotide Signaling” (Frontiers in Pharmacology, 2021)
